Assay results reported in patent publication US20250169715A1, “USE OF BLINK REFLEX FOR HEADACHE RESPONSE MONITORING AND/OR TREATMENT SELECTION” (priority 2022, published 2025).

System: patients with headache/migraine
Experiment: Blink reflex measuring device: blink-associated parameters before and after treatment, by treatment modality
Type: in vivo, human
Text: In embodiments, the one or more blink-associated parameters are selected from: • (a) latency, optionally in milliseconds, comprising a time differential between stimulation and eyelid movement, e.g., one or more of upper eyelid or lower eyelid; • (b) differential latency, optionally in milliseconds, comprising a time differential between the start of ipsilateral eye movement and the start of contralateral eye movement; • (c) delta 30, comprising a time difference between ipsilateral eye and contralateral eye movement; • (d) eyelid excursion, optionally in pixels, comprising a distance traveled by the eyelid from the tonic lid position to closed position; • (e) initial lid velocity, optionally in pixels/msec, comprising an average eyelid speed following start of eyelid movement, e.g., the first about 5 frames, the first about 7 frames, or the first about 10 frames; • (f) time to close, optionally in log scale, comprising a time for lid to travel from tonic lid position to the closed position; • (g) time to open, optionally in log scale, comprising a time for lid to travel from closed position back to tonic lid position; • (h) time under threshold, optionally in log scale, comprising a time that the eyelid spends below the threshold position; • (i) number of oscillations, comprising cycles of up and down upper eyelid movement after a stimulated blink; • (j) total blink time, optionally in log scale, comprising a time from start of eyelid movement until it returns to its tonic lid position; • (k) number of blinks; • (l) blink rate, optionally per minute; • (m) area under curve, optionally in pixels; • (n) maximum closing velocity, optionally in […], comprising a maximum velocity during eyelid closure; • (o) maximum opening velocity, optionally in […], comprising a maximum velocity during eyelid opening; and • (p) time to first oscillation, optionally in log scale, comprising the elapsed time between the eyelid returning within threshold of a tonic position for a stimulated blink and the onset of the next unstimulated blink.
In this study, a population of male and female migraine patients are assessed for blink reflex response using the blink reflex measuring device. The patients in this study are tested when they visit the doctor during their routine office visits and/or before and after a doctor prescribed therapeutic intervention.
Blink reflex measuring device was used for collecting multiple blink-associated parameters from patients with headache/migraine before and after treatment undergoing treatment.
Blink reflex measuring device was used for collecting multiple blink-associated parameters from patients with headache/migraine before and after undergoing different treatments. The different treatments were intravenous (IV) ketamine infusion therapy, sphenopalatine ganglion (SPG) block+peripheral nerve block (PNB), and IV ketamine+SPG+PNB. The results are shown in TABLE 2, FIGS. 34-6D and FIG. 7.
TABLES 4-6 show the variable changes based on right and left eye by treatment modality: intravenous (IV) ketamine infusion therapy (TABLE 4); sphenopalatine ganglion (SPG) block+peripheral nerve block (PNB) (TABLE 5); and IV ketamine+SPG+PNB (TABLE 6). It is important to note that whereas FIGS. 34-6D and FIG. 7 show the changes based on treatment modality of each variable and show the overall changes predicated on both right and left eye, TABLES 4-6 break down the variables by right and left eye changes.

[1] = left eye, post treatment, Table 4
[2] = post-treatment average, patients with headache/migraine, by treatment modality
[3] = right eye, post treatment, Table 4

Question: For `CNC1(c2ccccc2Cl)CCCCC1=O` (stereo not drawn) [ketamine], which “Blink Rate, Left Eye Post Tx” value (left eye, post treatment) is on record?
Answer: 89.415 per min

Question: And the “Blinks, Left Eye Post Tx” value (left eye, post treatment)?
Answer: 5.945 qty

Question: And the “Delta 30, Left Eye Post Tx” value (left eye, post treatment)?
Answer: 9.328 ms

Question: And the “Differential Latency, Left Eye Post Tx” value (left eye, post treatment)?
Answer: 4.625 ms

Question: And the “Excursions, Left Eye Post Tx” value (left eye, post treatment)?
Answer: 91.548 pixels

Question: What about the “Latency, Left Eye Post Tx” value (left eye, post treatment) of the same compound?
Answer: 53.958 ms

Question: What about the “Oscillations Rate, Left Eye Post Tx” value (left eye, post treatment) of the same compound?
Answer: 2.293 per min

Question: What about the “Oscillations, Left Eye Post Tx” value (left eye, post treatment) of the same compound?
Answer: 9.914 no.

Question: What about the “Time to Close, Left Eye Post Tx” value (left eye, post treatment) of the same compound?
Answer: 27.686 ms

Question: What about the “Time to First Oscillation, Left Eye Post Tx” value (left eye, post treatment) of the same compound?
Answer: 7.301 Ln ms

Question: And the “Time to Open, Left Eye Post Tx” value (left eye, post treatment)?
Answer: 286.813 ms

Question: What about the “Area Under the Curve, Left Eye Post Tx” value [1] of the same compound?
Answer: 10.250 pixels

Question: What about the “Time Under 20, Left Eye Post Tx” value [1] of the same compound?
Answer: 5.228 Ln ms

Question: What about the “Blink reflex differences pre and post treatment via Blink Reflex Measuring Device” value (patients having a migraine, p=0.05) of the same compound?
Answer: Statistical differences

Question: And the “Area Under Curve, POST-TX AVERAGE” value [2]?
Answer: 29522.632 pixels

Question: What about the “Blink Rate, POST-TX AVERAGE” value [2] of the same compound?
Answer: 83.490 per min

Question: What about the “Blinks, POST-TX AVERAGE” value [2] of the same compound?
Answer: 5.345 qty

Question: And the “Delta 30, POST-TX AVERAGE” value [2]?
Answer: 7.435 ms

Question: And the “Differential Latency, POST-TX AVERAGE” value [2]?
Answer: 6.145 ms

Question: What about the “Excursion, POST-TX AVERAGE” value [2] of the same compound?
Answer: 88.575 pixels

Question: And the “Latency, POST-TX AVERAGE” value [2]?
Answer: 49.827 ms

Question: What about the “Oscillations, POST-TX AVERAGE” value [2] of the same compound?
Answer: 10.273 no.

Question: What about the “Time Under 20, POST-TX AVERAGE” value [2] of the same compound?
Answer: 5.237 Ln ms

Question: And the “Time to Close, POST-TX AVERAGE” value [2]?
Answer: 29.930 ms

Question: And the “Time to First Oscillation, POST-TX AVERAGE” value [2]?
Answer: 7.412 Ln ms

Question: And the “Time to Open, POST-TX AVERAGE” value [2]?
Answer: 307.108 ms

Question: What about the “Blink Rate, Right Eye Post Tx” value (right eye, post treatment) of the same compound?
Answer: 73.691 per min

Question: What about the “Blinks, Right Eye Post Tx” value (right eye, post treatment) of the same compound?
Answer: 5.170 qty

Question: What about the “Delta 30, Right Eye Post Tx” value (right eye, post treatment) of the same compound?
Answer: 5.766 ms

Question: What about the “Differential Latency, Right Eye Post Tx” value (right eye, post treatment) of the same compound?
Answer: 5.438 ms

Question: What about the “Excursions, Right Eye Post Tx” value (right eye, post treatment) of the same compound?
Answer: 92.605 pixels

Question: And the “Latency, Right Eye Post Tx” value (right eye, post treatment)?
Answer: 52.583 ms

Question: And the “Oscillations Rate, Right Eye Post Tx” value (right eye, post treatment)?
Answer: 1.966 per min

Question: And the “Oscillations, Right Eye Post Tx” value (right eye, post treatment)?
Answer: 8.606 no.

Question: What about the “Time to Close, Right Eye Post Tx” value (right eye, post treatment) of the same compound?
Answer: 31.119 ms

Question: What about the “Time to First Oscillation, Right Eye Post Tx” value (right eye, post treatment) of the same compound?
Answer: 7.517 Ln ms

Question: What about the “Time to Open, Right Eye Post Tx” value (right eye, post treatment) of the same compound?
Answer: 258.318 ms

Question: What about the “Area Under the Curve, Right Eye Post Tx” value [3] of the same compound?
Answer: 10.157 pixels

Question: And the “Time Under 20, Right Eye Post Tx” value [3]?
Answer: 5.099 Ln ms
